US12570639B2, “Tetrahydroquinoline derivative and medicinal use thereof” (Toray Industries, Inc., priority 2020, dated 2026)
Structures can show the parent of a compound that is named as a salt.

Columns and labels:
[1] = In vitro radical scavenging action (DPPH method); settings: 30 minutes at room temperature, maximum concentration 100 μmol/L
Description: Radical scavenging action was evaluated using the DPPH method in the compound of Comparative Example 1, which is a tetrahydroquinoxaline derivative, and in the tetrahydroquinoline derivative (I) or a pharmaceutically acceptable salt thereof. The DPPH method was performed using an antioxidant capacity measurement kit (Dojindo Laboratories).
A test compound was dissolved in DMSO, and the resulting solution was then mixed with an assay buffer and a DPPH solution, which are included in the kit, to a total volume of 200 μL to obtain a final concentration of 10% DMSO, and the reaction was allowed to proceed. Wells added with 100 μmol/L ferrostatin-1, a radical scavenger, were grouped as “control,” and wells added with not test compound were grouped as “background.” The test compound was serially diluted 3-fold starting from a maximum concentration of 100 μmol/L, and the diluted test compound (1.2, 3.7, 11.1, 33.3, or 100 μmol/L) was added and allowed to react at room temperature. Thirty minutes after the reaction, the absorbance at 517 nm was measured, and the average absorbance value was calculated (N=2). The radical scavenging action of the test compound (hereinafter referred to as radical scavenging rate, %) was calculated based on the equation 2 below. The EC50 value of the test compound was calculated from the radical scavenging rate. Radical scavenging rate (%)=[1−{(Average absorbance value at 517 nm measured when a test compound is added)−(Average absorbance value at 517 nm measured in the background)}/{(Average absorbance value at 517 nm measured in the control)−(Average absorbance value at 517 nm measured in the background)}]×100 Equation 2
A note “no detection of radical scavenging action (N.D.),” is given to compounds with a EC50 of >100 μmol/L.

[2] = test system: Human fibrosarcoma cells (HT-1080 cells); assay: In vitro inhibitory action against ferroptosis (Erastin-induced cell death, Cell Counting Kit-8); assay type: cell-based; settings: Erastin 3 μmol/L, 24 hours
[3] = evaluation concentration 30 μmol/L
[4] = evaluation concentration 50 μmol/L
[5] = evaluation concentration 10 μmol/L

In the case of `NS(=O)(=O)c1ccc(C2CCc3cc(F)ccc3N2)cc1` (stereo not shown) [Example 107, 4-(6-fluoro-1,2,3,4-tetrahydroquinolin-2-yl)benzenesulfonamide], the EC50 [1] is reported as greater than 100 µM and the “Ferroptosis inhibition rate (%)” value [2, 3] is reported as 100.8%.

In the case of `FC(F)(F)Oc1ccc2c(c1)CCC(c1ccccc1)N2` (stereo not shown) [Example 81, 2-phenyl-6-(trifluoromethoxy)-1,2,3,4-tetrahydroquinoline], the EC50 [1] is reported as greater than 100 µM and the “Ferroptosis inhibition rate (%)” value [2, 4] is reported as 103.9%.

With `NS(=O)(=O)c1ccc(C2CCc3cc(F)ccc3N2)cc1` (stereo not shown) [Example 109, 4-(6-fluoro-1,2,3,4-tetrahydro-quinolin-2-yl)benzenesulfonamide] the EC50 [1] was greater than 100 µM and the “Ferroptosis inhibition rate (%)” value [2, 5] was 83.63%.

In the case of `NC(=O)c1ccc(C2CCc3c(Cl)cccc3N2)cc1` (stereo not shown) [Example 138, 4-(5-chloro-1,2,3,4-tetrahydroquinolin-2-yl)benzamide], the EC50 [1] is reported as greater than 100 µM and the “Ferroptosis inhibition rate (%)” value [2, 3] is reported as 65.15%.

With `FC(F)(F)c1ccc(C2CCc3ccccc3N2)cc1` (stereo not shown) [Example 29, 2-(4-(trifluoromethyl)phenyl)-1,2,3,4-tetrahydroquinoline] the EC50 [1] was greater than 100 µM and the “Ferroptosis inhibition rate (%)” value [2, 4] was 95.38%.

For `NC(=O)Cc1ccc2c(c1)CCC(c1ccccc1)N2` (stereo not shown) [Example 60, 2-(2-phenyl-1,2,3,4-tetrahydroquinolin-6-yl)acetamide], the EC50 [1] was greater than 100 µM and the “Ferroptosis inhibition rate (%)” value [2, 3] was 98.74%.

For `c1ccc([C@@H]2CCc3ccccc3N2)cc1` [Example 3, (S)-2-phenyl-1,2,3,4-tetrahydroquinoline], the EC50 [1] was greater than 100 µM and the “Ferroptosis inhibition rate (%)” value [2, 3] was 110.2%.

For `OCc1ccc2c(c1)CCC(c1ccccc1)N2` (stereo not shown) [Example 58, (2-phenyl-1,2,3,4-tetrahydroquinolin-6-yl)methanol], the EC50 [1] was greater than 100 µM and the “Ferroptosis inhibition rate (%)” value [2, 3] was 91.37%.

With `Clc1ccc2c(c1)NC(c1ccccc1)CC2` (stereo not shown) [Example 69, 7-chloro-2-phenyl-1,2,3,4-tetrahydroquinoline] the EC50 [1] was greater than 100 µM and the “Ferroptosis inhibition rate (%)” value [2, 3] was 106.4%.

In the case of `Cc1ccc2c(c1)NC(c1ccc(S(N)(=O)=O)cc1)CC2` (stereo not shown) [Example 105, 4-(7-methyl-1,2,3,4-tetrahydroquinolin-2-yl)benzenesulfonamide], the EC50 [1] is reported as greater than 100 µM and the “Ferroptosis inhibition rate (%)” value [2, 3] is reported as 99.03%.

For `Fc1ccc2c(c1)CCC(c1ccccc1)N2` (stereo not shown) [Example 82, 6-fluoro-2-phenyl-1,2,3,4-tetrahydroquinoline], the EC50 [1] was greater than 100 µM and the “Ferroptosis inhibition rate (%)” value [2, 3] was 112.6%.

For `Fc1cc2c(cc1F)NC(c1ccccc1)CC2` (stereo not shown) [Example 85, 6,7-difluoro-2-phenyl-1,2,3,4-tetrahydroquinoline], the EC50 [1] was greater than 100 µM and the “Ferroptosis inhibition rate (%)” value [2, 4] was 94.94%.

With `O=C(Cc1ccc2c(c1)CCC(c1ccccc1)N2)N1CC(O)C1` (stereo not shown) [Example 62, 1-(3-hydroxyazetidin-1-yl)-2-(2-phenyl-1,2,3,4-tetrahydroquinolin-6-yl)ethan-1-one] the EC50 [1] was greater than 100 µM and the “Ferroptosis inhibition rate (%)” value [2, 3] was 103.2%.

For `Fc1ccc(C2CCc3ccccc3N2)cc1` (stereo not shown) [Example 26, 2-(4-fluorophenyl)-1,2,3,4-tetrahydroquinoline], the EC50 [1] was greater than 100 µM and the “Ferroptosis inhibition rate (%)” value [2, 4] was 107.7%.

With `NC(=O)c1ccc(C2CCc3cc(F)ccc3N2)cc1` (stereo not shown) [Example 132, 4-(6-fluoro-1,2,3,4-tetrahydroquinolin-2-yl)benzamide] the EC50 [1] was greater than 100 µM and the “Ferroptosis inhibition rate (%)” value [2, 3] was 105.6%.

In the case of `CS(=O)(=O)Nc1ccc(C2CCc3ccccc3N2)cc1` (stereo not shown) [Example 136, N-(4-(1,2,3,4-tetrahydroquinolin-2-yl)phenyl)methanesulfonamide], the EC50 [1] is reported as greater than 100 µM and the “Ferroptosis inhibition rate (%)” value [2, 3] is reported as 75.50%.

For `NS(=O)(=O)c1ccc(C2CCc3c(F)cccc3N2)cc1` (stereo not shown) [Example 135, 4-(5-fluoro-1,2,3,4-tetrahydroquinolin-2-yl)benzenesulfonamide], the EC50 [1] was greater than 100 µM and the “Ferroptosis inhibition rate (%)” value [2, 3] was 62.32%.

With `O=C(Cc1ccc2c(c1)CCC(c1ccccc1)N2)N1CC(O)C1` (stereo not shown) [Example 143, 1-(3-hydroxyazetidin-1-yl)-2-(2-phenyl-1,2,3,4-tetrahydroquinolin-6-yl)ethan-1-one hydrochloride] the EC50 [1] was greater than 100 µM and the “Ferroptosis inhibition rate (%)” value ([2]; evaluation concentration 30 μmol/L, hydrochloride) was 93.97%.

In the case of `NS(=O)(=O)c1ccc(C2CCc3c(Cl)cccc3N2)cc1` (stereo not shown) [Example 134, 4-(5-chloro-1,2,3,4-tetrahydroquinolin-2-yl)benzenesulfonamide], the EC50 [1] is reported as greater than 100 µM and the “Ferroptosis inhibition rate (%)” value [2, 3] is reported as 77.77%.

In the case of `NC(=O)c1ccc(C2CCc3c(F)cccc3N2)cc1` (stereo not shown) [Example 137, 4-(5-fluoro-1,2,3,4-tetrahydroquinolin-2-yl)benzamide], the EC50 [1] is reported as greater than 100 µM and the “Ferroptosis inhibition rate (%)” value [2, 3] is reported as 93.06%.

With `NC(=O)c1ccc(C2CCc3cc(Cl)ccc3N2)cc1` (stereo not shown) [Example 121, 4-(6-chloro-1,2,3,4-tetrahydroquinolin-2-yl)benzamide] the EC50 [1] was greater than 100 µM and the “Ferroptosis inhibition rate (%)” value [2, 5] was 92.10%.

For `O=C(Cc1ccc2c(c1)CCC(c1ccccc1)N2)N1CCNCC1` (stereo not shown) [Example 158, 2-(2-phenyl-1,2,3,4-tetrahydroquinolin-6-yl)-1-(piperazin-1-yl)ethan-1-one], the EC50 [1] was greater than 100 µM and the “Ferroptosis inhibition rate (%)” value [2, 3] was 55.98%.

With `CC(=O)Nc1ccc(C2CCc3ccccc3N2)cc1` (stereo not shown) [Example 21, N-(4-(1,2,3,4-tetrahydroquinolin-2-yl)phenyl)acetamide] the EC50 [1] was greater than 100 µM and the “Ferroptosis inhibition rate (%)” value [2, 3] was 88.33%.

In the case of `NS(=O)(=O)c1ccc(C2CCc3ccccc3N2)cc1` (stereo not shown) [Example 34, 4-(1,2,3,4-tetrahydroquinolin-2-yl)benzenesulfonamide], the EC50 [1] is reported as greater than 100 µM and the “Ferroptosis inhibition rate (%)” value [2, 3] is reported as 86.96%.

For `O=C(Cc1ccc2c(c1)CCC(c1ccccc1)N2)N1CCC1` (stereo not shown) [Example 151, 1-(azetidin-1-yl)-2-(2-phenyl-1,2,3,4-tetrahydroquinolin-6-yl)ethan-1-one], the EC50 [1] was greater than 100 µM and the “Ferroptosis inhibition rate (%)” value [2, 3] was 108.2%.

With `NS(=O)(=O)c1ccc(C2CCc3ccc(F)cc3N2)cc1` (stereo not shown) [Example 118, 4-(7-fluoro-1,2,3,4-tetrahydroquinolin-2-yl)benzenesulfonamide] the EC50 [1] was greater than 100 µM and the “Ferroptosis inhibition rate (%)” value [2, 3] was 95.28%.

In the case of `Cc1ccc2c(c1)CCC(c1ccc(S(N)(=O)=O)cc1)N2` (stereo not shown) [Example 120, 4-(6-methyl-1,2,3,4-tetrahydroquinolin-2-yl)benzenesulfonamide], the EC50 [1] is reported as greater than 100 µM and the “Ferroptosis inhibition rate (%)” value [2, 5] is reported as 87.34%.

With `NC(=O)c1ccc(C2CCc3cc(Cl)ccc3N2)cc1` (stereo not shown) [Example 131, 4-(6-chloro-1,2,3,4-tetrahydroquinolin-2-yl)benzamide] the EC50 [1] was greater than 100 µM and the “Ferroptosis inhibition rate (%)” value [2, 3] was 102.5%.

In the case of `NS(=O)(=O)c1ccc(C2CCc3cc(Cl)ccc3N2)cc1` (stereo not shown) [Example 115, 4-(6-chloro-1,2,3,4-tetrahydroquinolin-2-yl)benzenesulfonamide], the EC50 [1] is reported as greater than 100 µM and the “Ferroptosis inhibition rate (%)” value [2, 3] is reported as 105.8%.

With `O=C(Cc1ccc2c(c1)CCC(c1ccccc1)N2)N1CC(F)(F)C1` (stereo not shown) [Example 160, 1-(3,3-difluoroazetidin-1-yl)-2-(2-phenyl-1,2,3,4-tetrahydroquinolin-6-yl)ethan-1-one] the EC50 [1] was greater than 100 µM and the “Ferroptosis inhibition rate (%)” value [2, 5] was 99.11%.

For `O=C(Cc1ccc2c(c1)CCC(c1ccccc1)N2)N1CCOCC1` (stereo not shown) [Example 145, 1-morpholino-2-(2-phenyl-1,2,3,4-tetrahydroquinolin-6-yl)ethan-1-one], the EC50 [1] was greater than 100 µM and the “Ferroptosis inhibition rate (%)” value [2, 3] was 102.0%.

In the case of `CC(C)(C)NC(=O)Cc1ccc2c(c1)CCC(c1ccccc1)N2` (stereo not shown) [Example 61, N-(tert-butyl)-2-(2-phenyl-1,2,3,4-tetrahydroquinolin-6-yl)acetamide], the EC50 [1] is reported as greater than 100 µM and the “Ferroptosis inhibition rate (%)” value [2, 3] is reported as 103.9%.

With `c1ccc([C@H]2CCc3ccccc3N2)cc1` [Example 2, (R)-2-phenyl-1,2,3,4-tetrahydroquinoline] the EC50 [1] was greater than 100 µM and the “Ferroptosis inhibition rate (%)” value [2, 3] was 117.4%.

For `COC1CN(C(=O)Cc2ccc3c(c2)CCC(c2ccccc2)N3)C1` (stereo not shown) [Example 147, 1-(3-methoxyazetidin-1-yl)-2-(2-phenyl-1,2,3,4-tetrahydroquinolin-6-yl)ethan-1-one], the EC50 [1] was greater than 100 µM and the “Ferroptosis inhibition rate (%)” value [2, 3] was 93.00%.

For `CS(=O)(=O)c1ccc(C2CCc3ccccc3N2)cc1` (stereo not shown) [Example 16, 2-(4-(methylsulfonyl)phenyl)-1,2,3,4-tetrahydroquinoline], the EC50 [1] was greater than 100 µM and the “Ferroptosis inhibition rate (%)” value [2, 4] was 90.31%.

For `CN(CCO)C(=O)Cc1ccc2c(c1)CCC(c1ccccc1)N2` (stereo not shown) [Example 150, N-(2-hydroxyethyl)-N-methyl-2-(2-phenyl-1,2,3,4-tetrahydroquino-lin-6-yl)acetamide], the EC50 [1] was greater than 100 µM and the “Ferroptosis inhibition rate (%)” value [2, 3] was 106.9%.

For `N#Cc1ccc(C2CCc3ccccc3N2)cc1` (stereo not shown) [Example 35, 4-(1,2,3,4-tetrahydroquinolin-2-yl)benzonitrile], the EC50 [1] was greater than 100 µM and the “Ferroptosis inhibition rate (%)” value [2, 3] was 106.5%.

For `O=C(Cc1ccc2c(c1)CCC(c1ccccc1)N2)NC1CCC1` (stereo not shown) [Example 155, N-cyclobutyl-2-(2-phenyl-1,2,3,4-tetrahydroquinolin-6-yl)acetamide], the EC50 [1] was greater than 100 µM and the “Ferroptosis inhibition rate (%)” value [2, 3] was 106.1%.
